PubChem BioAssay (NCI)
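Results reflect a 48-hour exposure of cells in 96-well plates to compound at five concentrations. GI50 is the concentration that inhibits growth by half. TGI: total growth inhibition.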

Legend:
Test in all cases: NCI-60 cell line screen, 48 h
BT-549 breast = tested on: BT-549 breast
HOP-92 NSCLC = tested on: HOP-92 NSCLC
IGROV1 ovarian = tested on: IGROV1 ovarian
LOX IMVI melanoma = tested on: LOX IMVI melanoma
MALME-3M melanoma = tested on: MALME-3M melanoma
NCI-H23 lung = tested on: NCI-H23 lung
NCI/ADR-RES ovarian = tested on: NCI/ADR-RES ovarian
SN12C renal = tested on: SN12C renal
TK-10 renal = tested on: TK-10 renal
UACC-257 melanoma = tested on: UACC-257 melanoma

`CC[C@@]12CCC(=S)N(CCSc3ccccc3)[C@@H]1c1c(n(S(=O)(=O)c3ccc(OC)cc3)c3ccccc13)CC2` showed a TGI (BT-549 breast) of over 100 µM, a TGI (HOP-92 NSCLC) of over 100 µM and a TGI (IGROV1 ovarian) of over 100 µM. It also gave a TGI (LOX IMVI melanoma) of over 100 µM, a TGI (MALME-3M melanoma) of over 100 µM and a TGI (NCI-H23 lung) of over 100 µM. It also gave a TGI (NCI/ADR-RES ovarian) of over 100 µM, a TGI (SN12C renal) of over 100 µM and a TGI (TK-10 renal) of over 100 µM. The TGI (UACC-257 melanoma) was over 100 µM.

With `c1ccc(-c2c(-c3[nH]c4ccccc4c3-c3ccccc3)[nH]c3ccccc23)cc1` the TGI (BT-549 breast) was 15 µM, the TGI (HOP-92 NSCLC) was 12.2 µM and the TGI (IGROV1 ovarian) was 16.3 µM. For the same molecule, the TGI (LOX IMVI melanoma) was 4.06 µM, the TGI (MALME-3M melanoma) was 31.2 µM and the TGI (NCI-H23 lung) was 6.68 µM. It also gave a TGI (NCI/ADR-RES ovarian) of 13.3 µM, a TGI (SN12C renal) of 3.8 µM and a TGI (TK-10 renal) of 22.4 µM. For the same molecule, the TGI (UACC-257 melanoma) was 25.1 µM.

In the case of `COC(=O)C(=O)C(C(=O)C(=O)Nc1ccc(C)c(C)c1)c1nc2ccc([N+](=O)[O-])cc2[nH]c1=O` (stereo not given), the TGI (BT-549 breast) is reported as over 100 µM, the TGI (HOP-92 NSCLC) is reported as over 100 µM and the TGI (IGROV1 ovarian) is reported as over 100 µM. It also gave a TGI (LOX IMVI melanoma) of over 100 µM, a TGI (MALME-3M melanoma) of over 100 µM and a TGI (NCI-H23 lung) of over 100 µM. For the same molecule, the TGI (NCI/ADR-RES ovarian) was over 100 µM, the TGI (SN12C renal) was over 100 µM and the TGI (TK-10 renal) was over 100 µM. It also gave a TGI (UACC-257 melanoma) of over 100 µM.

Work on `O=C(O)CCC1NC(/C(=C/c2ccccc2O)NC(=O)c2ccccc2)OC1=O` (stereo not given) yielded a TGI (BT-549 breast) of over 100 µM, a TGI (HOP-92 NSCLC) of over 100 µM and a TGI (IGROV1 ovarian) of over 100 µM. It also gave a TGI (LOX IMVI melanoma) of over 100 µM, a TGI (MALME-3M melanoma) of over 100 µM and a TGI (NCI-H23 lung) of over 100 µM. For the same molecule, the TGI (NCI/ADR-RES ovarian) was over 100 µM, the TGI (SN12C renal) was over 100 µM and the TGI (TK-10 renal) was over 100 µM. For the same molecule, the TGI (UACC-257 melanoma) was over 100 µM.

`O=C1C=C/C(=C/[C@H]2SSC=C[C@]23C=CC(=O)C3)C1` gave a TGI (BT-549 breast) of 46.8 µM, a TGI (HOP-92 NSCLC) of 61.5 µM and a TGI (IGROV1 ovarian) of 48 µM. For the same molecule, the TGI (LOX IMVI melanoma) was over 48.7 µM, the TGI (MALME-3M melanoma) was 41.5 µM and the TGI (NCI-H23 lung) was 44.1 µM. The TGI (NCI/ADR-RES ovarian) was 68.1 µM, the TGI (SN12C renal) was 52.3 µM and the TGI (TK-10 renal) was over 64.7 µM. The TGI (UACC-257 melanoma) was 99.8 µM.

With `COc1cc2c(cc1OCCCOc1ccc(-c3cc4ccccc4c4ccccc34)cc1)N=C[C@@H]1CCCN1C2=O` the GI50 (BT-549 breast) was 0.278 µM, the TGI (BT-549 breast) was 2.05 µM and the GI50 (HOP-92 NSCLC) was 0.334 µM. It also gave a TGI (HOP-92 NSCLC) of 1.53 µM, a GI50 (IGROV1 ovarian) of 0.122 µM and a TGI (IGROV1 ovarian) of 0.288 µM. It also gave a GI50 (LOX IMVI melanoma) of 1.02 µM, a TGI (LOX IMVI melanoma) of 2.19 µM and a GI50 (MALME-3M melanoma) of 1.4 µM. The TGI (MALME-3M melanoma) was 2.74 µM, the GI50 (NCI-H23 lung) was 1.41 µM and the TGI (NCI-H23 lung) was 2.74 µM. It also gave a GI50 (NCI/ADR-RES ovarian) of 0.716 µM, a TGI (NCI/ADR-RES ovarian) of 1.98 µM and a GI50 (SN12C renal) of 0.518 µM. The TGI (SN12C renal) was 1.84 µM, the GI50 (TK-10 renal) was 0.646 µM and the TGI (TK-10 renal) was 1.79 µM. It also gave a GI50 (UACC-257 melanoma) of 1.57 µM and a TGI (UACC-257 melanoma) of 3.1 µM.

In the case of `C#CCOC(=O)C(=[N+]=[N-])C(=O)CC(C)C`, the TGI (BT-549 breast) is reported as over 10 µM, the TGI (HOP-92 NSCLC) is reported as over 10 µM and the TGI (IGROV1 ovarian) is reported as over 10 µM. For the same molecule, the TGI (LOX IMVI melanoma) was over 10 µM, the TGI (MALME-3M melanoma) was over 10 µM and the TGI (NCI-H23 lung) was over 10 µM. For the same molecule, the TGI (NCI/ADR-RES ovarian) was over 10 µM, the TGI (SN12C renal) was over 10 µM and the TGI (TK-10 renal) was over 10 µM. The TGI (UACC-257 melanoma) was over 10 µM.

For `Cc1cc2c(cc1Cl)Sc1n[nH]c(=O)n1S2(=O)=O`, the TGI (BT-549 breast) was over 100 µM, the TGI (HOP-92 NSCLC) was over 100 µM and the TGI (IGROV1 ovarian) was over 100 µM. The TGI (LOX IMVI melanoma) was over 100 µM, the TGI (MALME-3M melanoma) was over 100 µM and the TGI (NCI-H23 lung) was over 100 µM. It also gave a TGI (NCI/ADR-RES ovarian) of over 100 µM, a TGI (SN12C renal) of over 100 µM and a TGI (TK-10 renal) of over 100 µM. For the same molecule, the TGI (UACC-257 melanoma) was over 100 µM.

For `S=c1[nH]n2c(COc3cc(Cl)c(OCc4nnc5sc(=S)[nH]n45)cc3Cl)nnc2s1`, the TGI (BT-549 breast) was over 100 µM, the TGI (HOP-92 NSCLC) was over 100 µM and the TGI (IGROV1 ovarian) was over 100 µM. It also gave a TGI (LOX IMVI melanoma) of over 100 µM, a TGI (MALME-3M melanoma) of over 100 µM and a TGI (NCI-H23 lung) of over 100 µM. For the same molecule, the TGI (NCI/ADR-RES ovarian) was over 100 µM, the TGI (SN12C renal) was over 100 µM and the TGI (TK-10 renal) was over 100 µM. It also gave a TGI (UACC-257 melanoma) of over 100 µM.

`CCOC(=O)c1cn(CC)c2ccc3c(c2c1=O)S(=O)(=O)C=C3` gave a TGI (BT-549 breast) of over 100 µM, a TGI (HOP-92 NSCLC) of over 100 µM and a TGI (IGROV1 ovarian) of over 100 µM. It also gave a TGI (LOX IMVI melanoma) of over 100 µM, a TGI (MALME-3M melanoma) of over 100 µM and a TGI (NCI-H23 lung) of over 100 µM. It also gave a TGI (NCI/ADR-RES ovarian) of over 100 µM, a TGI (SN12C renal) of over 100 µM and a TGI (TK-10 renal) of over 100 µM. It also gave a TGI (UACC-257 melanoma) of over 100 µM.

Work on `Cc1cc(C)n2c(nc3ccccc32)c1C#N` yielded a TGI (BT-549 breast) of over 100 µM, a TGI (HOP-92 NSCLC) of 79.8 µM and a TGI (IGROV1 ovarian) of over 100 µM. It also gave a TGI (LOX IMVI melanoma) of over 100 µM, a TGI (MALME-3M melanoma) of over 100 µM and a TGI (NCI-H23 lung) of over 100 µM. It also gave a TGI (NCI/ADR-RES ovarian) of over 100 µM, a TGI (SN12C renal) of over 100 µM and a TGI (TK-10 renal) of over 100 µM. The TGI (UACC-257 melanoma) was over 100 µM.

Work on `Cc1cc2occ(S(=O)(=O)NC(=O)Nc3ccc(Cl)cc3)c(=O)c2c(=O)o1` yielded a TGI (BT-549 breast) of over 100 µM, a TGI (HOP-92 NSCLC) of over 100 µM and a TGI (IGROV1 ovarian) of over 100 µM. The TGI (LOX IMVI melanoma) was over 100 µM, the TGI (MALME-3M melanoma) was over 100 µM and the TGI (NCI-H23 lung) was over 100 µM. The TGI (NCI/ADR-RES ovarian) was over 100 µM, the TGI (SN12C renal) was over 100 µM and the TGI (TK-10 renal) was over 100 µM. For the same molecule, the TGI (UACC-257 melanoma) was over 100 µM.

For `O=C(NCc1ccccc1Cl)c1c(O)c2ccccc2[nH]c1=O`, the TGI (BT-549 breast) was over 100 µM, the TGI (HOP-92 NSCLC) was 58.7 µM and the TGI (IGROV1 ovarian) was 67.2 µM. The TGI (LOX IMVI melanoma) was over 100 µM, the TGI (MALME-3M melanoma) was over 100 µM and the TGI (NCI-H23 lung) was over 100 µM. For the same molecule, the TGI (NCI/ADR-RES ovarian) was 56.6 µM, the TGI (SN12C renal) was over 100 µM and the TGI (TK-10 renal) was over 100 µM. It also gave a TGI (UACC-257 melanoma) of over 100 µM.

For `COc1ccc(CC[N+]2(C)COc3cc4oc(=O)cc(C)c4cc3C2)cc1OC` (stereo not given), the TGI (BT-549 breast) was over 100 µM, the TGI (HOP-92 NSCLC) was over 100 µM and the TGI (IGROV1 ovarian) was over 100 µM. The TGI (LOX IMVI melanoma) was over 100 µM, the TGI (MALME-3M melanoma) was over 100 µM and the TGI (NCI-H23 lung) was over 100 µM. The TGI (NCI/ADR-RES ovarian) was over 100 µM, the TGI (SN12C renal) was over 100 µM and the TGI (TK-10 renal) was over 100 µM. For the same molecule, the TGI (UACC-257 melanoma) was over 100 µM.

Work on `COc1cc2c(cc1OC)C(=O)/C(=C/c1ccc(N(C)C)cc1)CC2` yielded a TGI (BT-549 breast) of over 10 µM, a TGI (HOP-92 NSCLC) of over 10 µM and a TGI (IGROV1 ovarian) of over 10 µM. It also gave a TGI (LOX IMVI melanoma) of over 10 µM, a TGI (MALME-3M melanoma) of over 10 µM and a TGI (NCI-H23 lung) of over 10 µM. The TGI (NCI/ADR-RES ovarian) was over 10 µM, the TGI (SN12C renal) was over 10 µM and the TGI (TK-10 renal) was over 10 µM. The TGI (UACC-257 melanoma) was over 10 µM.

With `COc1cccc(CCCNC(=O)Cc2ccccc2CO)c1` the TGI (BT-549 breast) was over 100 µM, the TGI (HOP-92 NSCLC) was over 100 µM and the TGI (IGROV1 ovarian) was over 100 µM. The TGI (LOX IMVI melanoma) was over 100 µM, the TGI (MALME-3M melanoma) was over 100 µM and the TGI (NCI-H23 lung) was over 100 µM. For the same molecule, the TGI (NCI/ADR-RES ovarian) was over 100 µM, the TGI (SN12C renal) was over 100 µM and the TGI (TK-10 renal) was over 100 µM. For the same molecule, the TGI (UACC-257 melanoma) was over 100 µM.
